{"source": "patent US11123320B2", "about": "“Prophylactic or therapeutic agent for hyperaciive bladder” (SBI PHARMACEUTICALS CO., LTD., priority 2017, dated 2021)", "key": {"VEGF": {"system": "VEGF", "assay": "VEGF ELISA in rat bladder tissue", "assay_type": "in vivo", "conditions": "male SHR, oral ALA with sodium ferrous citrate as in Example 1, vs control group", "description": "ALA administration to a subject and the change in the amount of VEGF expression was investigated. VEGF is a vascular endothelial growth factor, and is used as a marker of bladder vascular endothelial dysfunction.\n(§1) Preparation of the experimental and control groups was carried out with the method and conditions similar to the method described in Example 1.\n(§2) The bladder tissue of experimental and control groups were processed with the procedure below, and used as samples.\n1. Wash 100 mg of tissue with 1×[…].\n2. Homogenize with 500 μl of 1×PBS.\n(§3) 3. Store overnight at −20° C.\n(§4) 4. Carry out freeze-thawing to destroy cell membrane, and centrifuge at 5000 G for 5 min at 4° C.\n(§5) 5. Dispense and store at −20° C. or −80° C.\n(§6) 6. After thawing, centrifuge again and employ for assay.\nELISA assay was performed with Rat VEGF ELISA kit (CUSABIO CSB-E04757r) according to the protocol provided by the manufacturer."}, "MDA (Malondialdehyde)": {"system": "MDA (Malondialdehyde)", "assay": "MDA assay in rat bladder tissue", "assay_type": "in vivo", "conditions": "male SHR, oral ALA with sodium ferrous citrate as in Example 1; vs control group", "description": "ALA administration to a subject and the change in the amount of MDA expression was investigated. MDA is one of lipid peroxidative degradation products, and is known as a major marker of lipid peroxidation.\nas §1, §2\n1. Subject to biomasher with 400 μl of cold assay buffer.\n2. Centrifuge at 15000 rpm for 5 min at 4° C. After centrifugation, add 300 μl of buffer to the supernatant and store on ice.\n3. Correct with protein concentration.\nELISA assay was performed with Malondialdehyde Assay kit (NWK-MDA01) according to the protocol provided by the manufacturer."}, "NGF": {"system": "NGF", "assay": "NGF ELISA in rat bladder tissue", "assay_type": "in vivo", "conditions": "male SHR, oral ALA with sodium ferrous citrate as in Example 1, vs control group", "description": "ALA administration to a subject and the change in the amount of NGF expression was investigated. Since micturition reflex is enhanced when NGF increases in the bladder thus resulting in overactive bladder, NGF is employed as a lower urinary tract dysfunction marker.\nas §1, §2\n1. Wash 100 mg of tissue with 1×PBS.\n2. Homogenize with 1 ml of 1×PBS.\nas §3, §4, §5, §6\nELISA assay was performed with Rat NGF ELISA kit (CUSABIO CSB-E24685r) according to the protocol provided by the manufacturer."}, "[1]": {"system": "overactive bladder model rats (SHR)", "assay": "Urination kinetics measurement with a metabolic cage", "assay_type": "in vivo, rat", "conditions": "male SHR, vs saline control", "description": "Twelve weeks old male SHR (spontaneously hypertension rata) were employed as experimental rats, and the experimental groups were divided into groups I-III by ALA administration conditions below. For experimental group II, ALA and sodium ferrous citrate were orally administered on experiment start day. The dosage of ALA was set at 10 mg/kg of body weight and sodium ferrous citrate was set at 15.7 mg/kg of body weight. On the other hand, for experimental group III, ALA was set at 100 mg/kg of body weight and sodium ferrous citrate was set at 157 mg/kg of body weight. Note that for control group I, saline only at an amount equal to ALA was administered instead of ALA and sodium ferrous citrate.\nFor control group I, saline was orally administered every day from experiment start day (12 weeks old) to week 6 (18 weeks old).\nFor experimental groups II and III, ALA and sodium ferrous citrate was orally administered every day from experiment start day (12 weeks old) to week 6 (18 weeks old).\nFor each experimental group, urination kinetics measurement with a metabolic cage was performed. Specifically, measurements were performed at 12 weeks old (before ALA administration) and at 18 weeks old (after ALA administration) to measure single urination amount, 24-hour urination amount, and water drinking amount. Here, the method based on Yono et al., Life Sci. 2007 Jun. 27; 81(3):218-222 (non-anesthetized, unrestrained, and day-and-night continuous measurement method of mouse urination function) was adopted as the measurement method with a metabolic cage. Note that before measurement of urination kinetics, body weight, blood pressure, and heart rate were measured as a caution in addition to the urination amount and water drinking amount. Moreover, when measuring urination kinetics, total number of urination was also measured."}, "Nrf2": {"system": "Nrf2", "assay": "Nrf2 ELISA in rat bladder tissue", "assay_type": "in vivo", "conditions": "male SHR, oral ALA with sodium ferrous citrate as in Example 1, vs control group", "description": "ALA administration to a subject and the change in the amount of Nrf2 expression was investigated. Nrf2 is one of transcription factors that regulate the expression of antioxidant enzymes or detoxication metabolism enzymes to control oxidative stress, and is employed as an oxidative stress marker.\nas §1, §2\n1. Wash excess blood with PBS.\n3. Place 600 μl of PBS on ice in a biomasher to finely mince tissue.\n4. Perform ultrasonic wave treatment or freeze-thawing (−20° C./room temperature) 3 times.\n5. Centrifuge at 5000 G for 5 minutes.\n6. Move the supernatant to a new tube (measure protein concentration).\nELISA assay was performed with Rat NFE2L2/NRF2 ELISA kit (LSBio LS-F12145) according to the protocol provided by the manufacturer."}, "[2]": {"system": "detrusor muscle / bladder of SHR rats", "assay": "Cystometry (overactive status of the detrusor muscle)", "assay_type": "in vivo, rat", "conditions": "18 weeks old male SHR under urethane anesthesia, after 6 weeks oral ALA 10 or 100 mg/kg with sodium ferrous citrate; vs group without ALA", "protocol": "Note that cystometry verifies the overactive status of the detrusor muscle, and is established as a method for examining overactive bladder. (1) 18 weeks old male SHR/Hos rats and Wistar/ST rat are subjected to general anesthesia by urethane (1.0 g/kg, i.p.). (2) Each rat is laid down and the extremities are fixed with packaging tape. Laparotomy is then performed, and the bladder is pressed to allow urination. Absorbent cotton with saline is placed on top to prevent drying and left for 30 minutes. (3) A catheter for cystometry is inserted into the bladder of each rat. Here, the catheter is joined to a three-way stopcock, and one end is connected to a syringe pump to continuously infuse saline into the bladder at a constant speed (12 ml/hr). The other end is connected to a pressure transducer to monitor and amplify with a pressure amplifier, and incorporated into a personal computer via Powerlab system for recording. (4) Saline is then infused and left for about 30 minutes until stable. (5) Watch the wave form to collect single urine into a 1.5 ml tube, and the weight of urine is measured. (6) Residual urine of each rat is collected and the amount is measured. (7) Peaks at similar interval and height are consecutively taken 6 times (about 1 hour)."}, "[3]": {"system": "bladder blood flow of SHR rats", "assay": "Bladder blood flow measurement (hydrogen clearance method)", "assay_type": "in vivo, rat", "conditions": "male SHR after 6 weeks oral ALA 10 or 100 mg/kg with sodium ferrous citrate, vs control", "protocol": "After said cystometry, bladder blood flow measurement (hydrogen clearance method) was performed according to the procedures below. (1) A silver chloride plate which is an indifferent electrode is buried under the precordium of each rat. (2) Wire platinum electrodes are incised into the bladder wall (three places in the bladder wall, data is collected 3 times each). (3) Blood flow is measured using UH-METER. Specifically, a hydrogen tank is opened to 0.3 L/min, and 100% hydrogen is directly inhaled with a funnel. Hydrogen is given until peaked, and hydrogen clearance curve is measured with the PowerLab system. The timepoint when the hydrogen clearance curve begins to drop is set at 0 second, and recording was performed for about 180 seconds. (4) The blood flow amount was calculated from the regression curve. * Half-life (T½) is determined from the regression curve Y=B−AX."}, "[4]": {"conditions": "ALA 10 or 100 mg/kg with sodium ferrous citrate orally every day for 6 weeks"}}, "data": [{"smiles": "NCC(=O)CCC(=O)O", "note": "[ALA, 5-aminolevulinic acid]", "values": [{"measurement": "amount of VEGF expression in bladder tissue", "setting": "VEGF", "result": "significantly reduced"}, {"measurement": "amount of MDA expression in bladder tissue", "setting": "MDA (Malondialdehyde)", "result": "significantly reduced"}, {"measurement": "amount of NGF expression in bladder tissue", "setting": "NGF", "result": "significantly reduced"}, {"measurement": "increase in single urination amount compared to the control group", "setting": "[1]; ALA 10 or 100 mg/kg with sodium ferrous citrate 15.7 or 157 mg/kg orally every day for 6 weeks, measured at 18 weeks old", "result": "approximately 30%"}, {"measurement": "24-hour urination amount compared to the control group", "setting": "[1]; [4]", "result": "increase in 24-hour urination amount"}, {"measurement": "24-hour water drinking amount", "setting": "[1]; [4]", "result": "increase in water drinking amount"}, {"measurement": "amount of Nrf2 expression in bladder tissue", "setting": "Nrf2", "result": "significantly reduced"}, {"measurement": "urination interval (cystometry)", "setting": "[2]", "result": "extension of urination interval"}, {"measurement": "bladder blood flow amount", "setting": "[3]", "result": "tendency of bladder blood flow to increase ALA dosage-dependently"}]}]}
